Consider 1 compound from US9668479B2, “Modulating germination of Paenibacillus larvae” (THE BOARD OF REGENTS OF THE NEVADA SYSTEM OF HIGHER …, priority 2013, dated 2017).

Test [1] has as its system honey bee larvae contacted with P. larvae spores. In words: Survival of honey bee larvae fed diet with indole analogs and P. larvae spores. In kind it is in vivo. As to the method: First instar honey bee larvae were obtained from two colonies headed by naturally mated queens (Honey Bee Genetics, Vacaville Calif.). Queens were trapped on empty frames within a cage constructed with queen excluder. Worker bees can fit through the excluder but the queen cannot exit the cage. The frame was placed within the brood chamber to stimulate egg laying by the queen overnight. Eggs were incubated in the hive for 4 days to allow newly hatched larvae to be fed by nurse bees. First instar honey bee larvae were brought into the laboratory and stored in a 35° C. 85% relative humidity chamber before grafting.
Sterile six well plates with a well volume of 17.0 ml were filled with 2.5 ml of pre-warmed artificial worker jelly. Honey bee larvae were transferred into each well using the thin tongue made of flexible plastic from a Chinese grafting tool. The plastic grafting tool was decontaminated with 70% ethanol throughout usage. Grafting was performed in the sterile environment of a honey bee laboratory, and honey bee larvae were then transferred to a bacterial spore laboratory for control and spore exposure treatments.
Artificial worker jelly was prepared using a lyophilized royal jelly, D-glucose, D-fructose, yeast extract, and autoclaved double distilled water. Ingredients minus lyophilized royal jelly were dissolved in autoclaved double distilled water. Lyophilized royal jelly was added to this sugar-yeast extract solution and mixed thoroughly with a vortex mixer. Artificial diet was prepared an hour prior to use for larval rearing. To reduce the development of worker-queen hybrids because of nutrition, the composition and amounts of artificial worker jelly were controlled in every larval stage.
Honey bee larvae were incubated in an air tight plastic container placed inside an incubator. The desired relative humidity (95%) and temperature (35° C.) was verified with an iButton data logger (Maxim Integrated; San Jose, Calif.). The appropriate relative humidity was obtained by placing a solution of 20% glycerol by weight. The plastic containers were was decontaminated throughout usage with detergent, 70% ethanol, and treated with an ultraviolet lamp overnight.
Feeding of diets was performed daily in different amounts according to Table 2. The amount of diet consumed by larvae was assumed based on published literature. A micropipette was used to place a food drop next to the mouth of the larvae. Drowning was avoided by maintaining the appropriate humidity and water content of diet. Forty first and second instar larvae were placed into one well of a six well plate. Third instar larvae were transferred individually to 48 well plates filled with fresh food.
Larval survival was determined daily by observing signs of respiration, disease symptoms, and other abnormalities with a stereo microscope. The number of dead larvae was recorded, and surviving larvae were fed fresh food. The start of pupation was indicated by the appearance of uric acid crystals and light yellow excretions in the remaining food.
The larval survival data was analyzed using the LogRank test in SigmaPlot.

For test [2], the system named is P. larvae spores. The test is described as follows: Inhibition of P. larvae spore germination, IC50 titration of indole analogs (Example 2). In kind it is cell-based, Paenibacillus larvae subsp. pulvifaciens strain ATCC 49843. Particulars: Paenibacillus larvae; Table 2; saturating uric acid/L-tyrosine concentrations; read-out: IC50. As to the method: After a 15 minute incubation, the spores were treated with 3 mM L-tyrosine-3 mM uric acid. The germination rate was set to 100% for P. larvae spores germinated in the absence of inhibitor. Germination rates for other conditions were divided by the uninhibited maximum germination rate obtained with 3 mM L-tyrosine-3 mM uric acid, and are reported as percent germination. Percent germination was plotted against the inhibitor concentrations.

The test system of test [3] is P. larvae spores. The test is described as follows: Growth from P. larvae spores in medium containing 5-chloroindole. In kind it is cell-based, Paenibacillus larvae. The procedure: FIGS. 7A-7D are graphs plotting the inhibition activity of 5-chloroindole on P. larvae spores. P. larvae spores were grown in medium containing different concentrations of 5-chloroindole. Growth was monitored over a 24 hour period; plots are shown for 6 hours (FIG. 7A), 12 hours (FIG. 7B), 18 hours (FIG. 7C), and 24 hours (FIG. 7D). Asterisks denote significant differences from the growth of medium control (Analysis of Variance, Log-rank test, p<0.05).
P. larvae spores were grown in medium containing different concentrations of DMSO, complex medium (MYPGP), or 0.5 to 2 mM 5-chloroindole, and cellular growth was monitored over a 24 hour period.

The subject of another test is P. larvae cells. In words: Growth of P. larvae cells in medium containing 5-chloroindole. It counts as cell-based, Paenibacillus larvae. Particulars: 1, 1.5 and 2 mM; all time points (6, 12, 18, 24 hours); p<0.05. The procedure:
FIGS. 6A-6D are graphs plotting the inhibition activity of 5-chloroindole on P. larvae cells. P. larvae cells were grown in medium containing different concentrations of 5-chloroindole, and cellular growth was monitored over a 24 hour period. Graphs are shown for 6 hours (FIG. 6A), 12 hours (FIG. 6B), 18 hours (FIG. 6C), and 24 hours (FIG. 6D). Asterisks denote significant differences from the growth of medium control (Analysis of Variance, Log-rank test, p<0.05).
5-Chloroindole was then tested in vitro, using P. larvae cells or spores. P. larvae cells were grown in medium containing different concentrations of DMSO, complex medium (MYPGP), or 0.5 to 2 mM 5-chloroindole, and cellular growth was monitored over a 24 hour period.

As usually defined, the IC50 is the point on the concentration scale where inhibition reaches its midpoint. As to `Clc1ccc2[nH]ccc2c1` [5-chloroindole], the “concentration dependence of increase in larval survival” value in test [1] (0.125 mM to 1 mM in larval diet (wj) plus P. larvae spores, p<0.001) is “directly correlated to its concentration”. Also, in test [1] (0.5 mM in larval diet (wj) plus P. larvae spores), the “ranking of effect on larval survival among analogs” value is on record as “greatest effect”. The “survival of honey bee larvae vs P. larvae spores alone” value in test [1] (0.5 mM in larval diet (wj) plus P. larvae spores, 7-day development, p<0.002) is listed as “increased survival”. Moreover, the IC50 in the test with P. larvae spores [2] is 30 ± 10 µM. In the test with P. larvae spores [3] (0.5 to 2 mM, 6 hours), the “effect on growth from P. larvae spores vs medium control, 6 hours” value is “no significant effect”. In addition, the “effect on growth from P. larvae spores vs medium control, 18 and 24 hours” value in the test with P. larvae spores [3] (all concentrations (0.5 to 2 mM), 18 and 24 hours, p<0.05) was “significantly inhibited”. For the same compound, in the test on P. larvae cells, the “inhibition of P. larvae cell growth vs medium control” value is “significantly inhibited”.
